From patent publication US10398723B1, “Hyaluronan-containing composition and use thereof for mitigation and/or prevention of inflammation and/or pain” (Viscos, LLC, priority 2015, dated 2019)

System: whole blood culture
Experiment: inflammatory cell activation (CD69, CD25 expression) in whole blood culture
Format: cell-based
Details: samples from human subjects; 0.006 mg/mL, 0.05 g/mL or 0.4 mg/mL in culture medium; dose-dependent
Procedure: A dose of 0.006 mg/mL, […] or 0.4 mg/mL (concentration of formulation in culture medium) was employed, but any dose less than 0.006 mg/mL or greater than 0.4 mg/mL or between 0.006 mg/mL and 0.4 mg/mL (concentration of formulation in any diluent) is likewise within the scope of this disclosure. […] Activation of inflammatory cells was measured, and is verified by assays known in the art, by expression of CD69, a protein expressed on activated white blood cells including T lymphocytes, NK cells, monocytes and PMN cells. Activation of inflammatory cells was measured, and is verified by assays known in the art, by expression of CD25, the alpha chain of the low affinity interleukin-2 (IL-2) receptor. […] An increase such as that observed in this Example may be, by way of example and not of limitation, of at least about 1%, or of at least about 2%, or of at least about 5%, or of at least about 10%, or of at least about 20%, or of at least about 30%, or of at least about 40%, or of at least about 50%, or of at least about 60%, or of at least about 70%, or of at least about 80%, or of at least about 90%. A statistically significant decrease is a function of sample size and variability. […]

## CS(C)(=O)=O [MSM, methylsulfonylmethane]
  inflammatory cell activation: decrease

## Hyaluronan [HA]
  inflammatory cell activation: decrease
